Measured values: US6271342A, “Sugar-modified cytostatics” (Bayer Aktiengesellschaft, priority 1995, dated 2001)
Counter-ions that a name gives are not always drawn.

Legend:
SW 480 = experiment: Growth inhibition test (MTT) for cytotoxic properties; format: cell-based, human; conditions: Table 1a, glycoconjugates of batracyline
Protocol: (§1) Growth Inhibition Test for Determination of the Cytotoxic Properties of Glycoconjugates of Batracyline and of Quinolone-a
(§2) The human colon cell lines SW 480 and HT 29 (ATCC no. CCL 228 and HBT-38) and the mouse melanoma cell line B 16 F 10 were cultured in Roux dishes in RPMI 1640 medium with addition of 10% FCS. The cultures were then trypsinized and taken up in RPMI plus 10% FCS to a cell count of 50,000 cells/ml. 100 μl of cell suspension/well were introduced into a 96 microwell plate and incubated for 1 day at 37° C. in a CO2 incubating cabinet. A further 100 μl of RPMI medium and 1 μl of dimethyl sulphoxide with the test substances were then added. The growth was checked after day 3 and day 6. 40 μl of MTT solution (3-(4,5-dimethylthiazol-2-yl)-2,5-diphenyltetrazoline bromide) with an initial concentration of 5 mg/ml of H2 O were added to each microwave. The plate was incubated for 5 hours in a CO2 incubating cabinet at 37° C. The medium was then sucked off and 100 μl of i-propanol/well were added. After shaking for 30 minutes with 100 μl of H2 O, the extinction was measured at 540 nm with a Titertek Multiskan MCC/340 (Flow).
(§3) The cytotoxic action of the glycoconjugates of batracyline described is shown in Table 1a as the IC50 value in each case for the SW 480 and HT 29 cell lines.

HT 29 = experiment: as above; format: cell-based, human; conditions: Table 1a, glycoconjugates of batracyline
Protocol: as §1, §2, §3

| Compound | IC50 (SW 480) [µM] | IC50 (HT 29) [µM] |
| --- | --- | --- |
| O=C(O)CO[C@H]1[C@@H](O)[C@@H](CO)O[C@@H](Oc2ccc(NC(=S)NCCCC[C@H](NC(=S)Nc3ccc(O[C@@H]4O[C@H](CO)[C@H](O)[C@H](OCC(=O)O)[C@H]4O)cc3)C(=O)Nc3ccc4nc5n(c(=O)c4c3)Cc3ccccc3-5)cc2)[C@@H]1O [Example 6.28, N-{N^α,N^ε -Bis-[O-(3-O-carboxymethyl-β-D-galactopyranosyl)-4-hydroxy-phenylamino-thiocarbonyl]-lysyl}-batracyline, di-sodium salt] | 40 | 25 |
| NC(=O)COC1C(O)C(CO)OC(Oc2ccc(NC(=S)NCCCCC(NC(=S)Nc3ccc(OC4OC(CO)C(O)C(OCC(N)=O)C4O)cc3)C(=O)Nc3ccc4nc5n(c(=O)c4c3)Cc3ccccc3-5)cc2)C1O [Example 6.29, N-{N^α,N^ε -Bis-[O-(3-O-carbamoylmethyl-β-D-galactopyranosyl)-4-hydroxy-phenylamino-thiocarbonyl]-lysyl}-batracyline] | 95 | 130 |
| COC1C(O)C(C)OC(Oc2ccc(NC(=S)Nc3ccc4c(c3)Cn3c-4nc4ccccc4c3=O)cc2)C1O [Example 7.7, N-[O-(3-O-Methyl-β-L-fucosyl)-4-hydroxy-phenylamino-thiocarbonyl]-batr acyline] | 100 | > 250 |
| N-{N-(O-(3-O-Methyl-β-L-fucosyl)-4-hydroxy-phenylamino-thiocarbonyl]-D -alanyl}-batracyline [Example 7.1] | 40 | 40 |
| N-{N-[O-(3,4-Di-O-methyl-β-D-galactopyranosyl)-4-hydroxy-phenylamino-t hio-carbonyl]-D-alanyl}-batracyline [Example 7.8] | 40 | 30 |
| N-{N-[O-(3-O-Carbamoylmethyl-β-D-galactopyranosyl)-4-hydroxy-phenylami no-thiocarbonyl]-D-alanyl}-batracyline [Example 7.12] | 10 | 10 |
| N-{N-[O-(3-O-Carboxymethyl-β-D-galactopyranosyl)-4-hydroxy-phenylamino -thiocarbonyl]-D-alanyl}-batracyline, sodium salt [Example 7.11] | 30 | 25 |
| N-{N-[O-(3-O-Carboxymethyl-β-L-fucosyl)-4-hydroxy-phenylamino-thiocarb onyl]-D-alanyl}-batracyline, sodium salt [Example 7.2] | 40 | 30 |
| N-{N-[O-(α-D-Mannopyranosyl)-4-hydroxy-phenylamino-thiocarbonyl]-lysy l-D-alanyl}-batracyline [Example 4.11] | 15 | 15 |
| N-{N^α -[-(3-O-Carbamoylmethyl-β-D-galactopyranosyl)-4-hydroxy-phenylamino-t hiocarbonyl]-lysyl-D-alanyl}-batracyline [Example 4.10] | 30 | 30 |
| N-{N^α -[-(3-O-Carboxymethyl-β-D-galactopyranosyl)-4-hydroxy-phenylaminothio carbonyl]-N^ε -[O-(3,4-di-O-methyl-β-D-galactopyranosyl)-4-hydroxy-phenylamino-thio carbonyl]-lysyl-D-alanyl}-batracyline, sodium salt [Example 5.13] | 20 | 40 |
| N-{N^α -[O-(3,4-Di-O-methyl-β-D-galactopyranosyl)-4-hydroxy-phenylamino-thio carbonyl]-N^ε -[O-(3-O-(piperidyl-N)-carbonylmethyl-β-D-galactopyranosyl)-4-hydroxy -phenylamino-thiocarbonyl]-lysyl-D-alanyl}-batracyline [Example 5.15] | > 250 | 70 |
| N-{N^α -[O-(3,4-Di-O-methyl-β-D-galactopyranosyl)-4-hydroxy-phenylamino-thio carbonyl]-N^ε -[O-(3-O-carbamoylmethyl-β-D-galactopyranosyl)-4-hydroxy-phenylamino- thiocarbonyl]-lysyl-D-alanyl}-batracyline [Example 5.21] | 60 | 80 |
| N-{N^α -[O-(3-O-Carbamoylmethyl-β-D-galactopyranosyl)-4-hydroxy-phenylamino- thiocarbonyl]-N^ε -[O-(3-O-carboxymethyl-β-D-galactopyranosyl)-4-hydroxy-phenylamino-th iocarbonyl]-lysyl-D-alanyl}-batracyline, sodium salt [Example 5.20] | 50 | 30 |
| N-{N^α -[O-(3-O-Carboxymethyl-β-D-galactopyranosyl)-4-hydroxy-phenylamino-th iocarbonyl]-N^ε -[O-(3,4-di-O-methyl-β-D-galactopyranosyl)-4-hydroxy-phenylamino-thio carbonyl]-lysyl-D-alanyl}-batracyline [Example 5.14] | 20 | 30 |
| N-{N^α -[O-(3-O-Carboxymethyl-β-D-galactopyranosyl)-4-hydroxy-phenylamino-th iocarbonyl]-N^ε -[O-(3-O-carbamoylmethyl-β-D-galactopyranosyl)-4-hydroxy-phenylamino- thiocarbonyl]-lysyl-D-alanyl}-batracyline, sodium salt [Example 5.23] | 25 | 35 |
| N-{N^α -[O-(3-O-Carboxymethyl-β-D-galactopyranosyl)-4-hydroxy-phenylamino-th iocarbonyl]-lysyl-D-alanyl}-batracyline, sodium salt [Example 4.9] | 20 | 30 |
| N-{N^α -[O-(3-O-Methoxycarbonylmethyl-[-D-galactopyranosyl)-4-hydroxy-phenylamino -thiocarbonyl]-lysyl-D-alanyl}-batracyline [Example 4.8] | 50 | 40 |
| N-{N^α -[O-(3-O-Methoxycarbonylmethyl-β-D-galactopyranosyl)-4-hydroxy-phenyl amino-thiocarbonyl]-N^ε -[O-(3-O-carbamoylmethyl-β-D-galactopyranosyl)-4-hydroxy-phenylamino- thiocarbonyl]-lysyl-D-alanyl}-batracyline [Example 5.22] | 30 | 40 |
| N-{N^α -[O-(3-O-Methoxycarbonylmethyl-β-D-galactopyranosyl)-4-hydroxy-phenyl amino-thiocarbonyl]-N^ε -[O-(3-O-carboxymethyl-β-D-galactopyranosyl)-4-hydroxy-phenylamino-th iocarbonyl]-lysyl-D-alanyl}-batracyline, sodium salt [Example 5.19] | 35 | 25 |
| N-{N^α -[O-(3-O-Methoxycarbonylmethyl-β-D-galactopyranosyl)-4-hydroxyphenyla mino-thiocarbonyl]-N^ε -[O-(3,4-di-O-methyl-β-D-galactopyranosyl)-4-hydroxy-phenylamino-thio carbonyl]-lysyl-D-alanyl}-batracyline [Example 5.12] | 20 | 20 |
| N-{N^α -[O-(3-O-Methyl-α-D-mannopyranosyl)-4-hydroxy-phenylamino-thiocarbon yl]-lysyl-D-alanyl}-batracyline [Example 4.12] | 15 | 9 |
| N-{N^α -[O-(3-O-Methyl-β-D-galactopyranosyl)-4-hydroxy-phenylamino-thiocarbo nyl]-lysyl-D-alanyl}-batracyline [Example 4.7] | 15 | 15 |
